Measurements: PMC11592078, “Synthesis, Analytical Characterization, and Human CB1 Receptor Binding Studies of the Chloroindole Analogues of the Synthetic Cannabinoid MDMB-CHMICA” (Biomolecules, 2024)
Where two headings read alike, the source gives them in different places.

Columns and labels:
hCB1 receptor [1] = molecular target: T1, hCB1 receptor (Homo sapiens, UniProt P21554); test: competitive ligand binding assay with [3H]-CP-55,940 on hCB1 membrane preparations of HEK293-EBNA cells
T1 construct: purchased Perkin Elmer; host or cells: HEK293-EBNA
T1 sequence (P21554 whole entry): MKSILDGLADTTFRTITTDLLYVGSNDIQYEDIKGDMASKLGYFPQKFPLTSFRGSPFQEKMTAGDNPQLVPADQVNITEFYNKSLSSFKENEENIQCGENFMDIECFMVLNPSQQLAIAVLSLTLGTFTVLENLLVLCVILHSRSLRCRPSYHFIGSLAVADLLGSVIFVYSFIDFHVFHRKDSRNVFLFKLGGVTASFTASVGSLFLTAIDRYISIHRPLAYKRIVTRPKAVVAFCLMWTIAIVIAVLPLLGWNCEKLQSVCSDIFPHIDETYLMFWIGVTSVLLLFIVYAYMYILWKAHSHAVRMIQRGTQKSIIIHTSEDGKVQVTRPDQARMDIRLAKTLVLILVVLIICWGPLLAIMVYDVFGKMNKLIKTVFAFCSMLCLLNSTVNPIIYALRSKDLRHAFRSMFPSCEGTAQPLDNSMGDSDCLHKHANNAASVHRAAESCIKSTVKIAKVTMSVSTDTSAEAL

hCB1 receptor [2] = molecular target: T1, hCB1 receptor; parameters: method as in earlier work; settings: read-out: Ki at hCB1; comparable assay setup; ref 31 (Schoeder et al.); cited from earlier work

| Structure (SMILES) | IC50 (hCB1 receptor [1]) | Ki (hCB1 receptor [1]) | rank of Ki among the chloro analogues (hCB1 receptor [1]; comparison of the substitution positions) | Ki (hCB1 receptor [2]) |
| --- | --- | --- | --- | --- |
| COC(=O)[C@@H](NC(=O)c1c(Cl)n(CC2CCCCC2)c2ccccc12)C(C)(C)C [2-Chloro-MDMB-CHMICA, Methyl (S)-2-(2-chloro-1-(cyclohexylmethyl)-1H-indole-3-carboxamido)-3,3-dimethylbutanoate] | 23.6 nM | 0.58 nM | lowest Ki value |  |
| COC(=O)[C@@H](NC(=O)c1cn(CC2CCCCC2)c2cccc(Cl)c12)C(C)(C)C [4-Chloro-MDMB-CHMICA, Methyl (S)-2-(4-chloro-1-(cyclohexylmethyl)-1H-indole-3-carboxamido)-3,3-dimethylbutanoate] | 268 nM | 6.55 nM |  |  |
| COC(=O)[C@@H](NC(=O)c1cn(CC2CCCCC2)c2ccc(Cl)cc12)C(C)(C)C [5-Chloro-MDMB-CHMICA, Methyl (S)-2-(5-chloro-1-(cyclohexylmethyl)-1H-indole3-carboxamido)-3,3-dimethylbutanoate] | 402 nM | 9.81 nM |  |  |
| COC(=O)[C@@H](NC(=O)c1cn(CC2CCCCC2)c2cc(Cl)ccc12)C(C)(C)C [6-Chloro-MDMB-CHMICA, Methyl (S)-2-(6-chloro-1-(cyclohexylmethyl)-1H-indole-3-carboxamido)-3,3-dimethylbutanoate] | 31.6 nM | 0.77 nM |  |  |
| COC(=O)[C@@H](NC(=O)c1cn(CC2CCCCC2)c2c(Cl)cccc12)C(C)(C)C [7-Chloro-MDMB-CHMICA, Methyl (S)-2-(7-chloro-1-(cyclohexylmethyl)-1H-indole-3-carboxamido)-3,3-dimethylbutanoate] | 28.8 nM | 0.7 nM |  |  |
| CCCCCn1cc(C(=O)c2cccc3ccccc23)c2ccccc21 [JWH-018, naphthalen-1-yl(1-pentyl-1H-indol-3-yl)methanone, reference compound] | 103 nM | 2.69 nM |  |  |
| COC(=O)C(NC(=O)c1cn(CC2CCCCC2)c2ccccc12)C(C)(C)C (stereo not drawn) [MDMB-CHMICA, Methyl 2-[[1-(cyclohexylmethyl)-1H-indole-3-carbonyl]amino]-3,3-dimethylbutanoate] |  | 0.951 nM |  | 0.41 ± 0.141 nM |
